In patent US20260008758A1, “LINEAR DIPEPTIDYL PEPTIDASE 1 INHIBITORS AND USES THEREOF” (Insmed Incorporated, priority 2024, published 2026):

Experiments:
DPP1 in HL-60 cells = DPP1 in HL-60 cells (Homo sapiens (Human), UniProt P53634); experiment: DPP1 cell single-point percent inhibition testing (HL-60 cells, H-Gly-Phe-AFC substrate); type: cell-based; details: read-out: DPP1 cell % inhibition @ 5 nM, 5 nM compound, 100 μM H-Gly-Phe-AFC, 60 min pre-incubation at 37° C.
Protocol: HL-60 cells (ATCC; Manassas, VA) were maintained in RPMI-1640 supplemented with 20% heat-inactivated FBS and 1× Antibiotic Antimycotic (Cytiva; Marlborough, MA). Media was changed every three to four days and cells were not allowed to exceed 1×10^6 cells per mL. Prior to assay, cells were collected by centrifugation at 500 rcf for 3 minutes, resuspended in RPMI (with no additional supplements) and counted. Cells were diluted in RPMI to a concentration of 5×10^5 live cells per mL and transferred to black 96-well plates for assay, 60 μL per well. Test articles were diluted to 25 nM in RPMI plus 0.5% DMSO, and 20 μL was added to each assay well. Compound was allowed to pre-incubate with cells with gentle shaking at 100 rpm for 60 minutes at 37° C. in a cell culture incubator maintained at 5% CO2, after which 20 μL of 500 μM H-Gly-Phe-AFC cell-permeable substrate (MP Biomedicals; Solon, OH) in RPMI was added to each well, giving final compound concentration of 5 nM, a final substrate concentration of 100 μM and a final DMSO concentration of 0.1%. Plates were returned to the incubator with shaking at 100 rpm for 30 minutes, after which fluorescence was measured at Excitation/Emission 400/505 nm. Percent Inhibition was calculated from RFU values by first subtracting background values (wells in which RPMI was substituted for cells) from each well, and then subtracting background-subtracted RFU derived from wells that received a final concentration of 10 μM brensocatib. This value represents the non-specific substrate cleavage from the HL-60 cells, and the remaining RFU should theoretically be solely the contribution of DPP1 enzyme activity. The final percent inhibition value was calculated for each test article based on remaining RFU compared to RFU from wells that received only vehicle control.

human DPP1 enzyme [1] = target: T1, human DPP1 enzyme (Homo sapiens (Human), UniProt P53634); experiment: Human DPP1 enzyme single-point percent inhibition testing (HL-60 lysate, H-Gly-Arg-AMC substrate); type: biochemical; details: read-out: human DPP1 enzyme % inhibition @ 10 nM, 10 nM compound, 400 μM H-Gly-Arg-AMC, 10 min pre-incubation at 37° C.
T1 sequence (P53634 25-134): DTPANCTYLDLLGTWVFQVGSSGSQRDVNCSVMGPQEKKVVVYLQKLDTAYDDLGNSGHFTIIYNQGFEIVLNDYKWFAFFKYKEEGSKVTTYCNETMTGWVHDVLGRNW
T1 sequence (P53634 231-394): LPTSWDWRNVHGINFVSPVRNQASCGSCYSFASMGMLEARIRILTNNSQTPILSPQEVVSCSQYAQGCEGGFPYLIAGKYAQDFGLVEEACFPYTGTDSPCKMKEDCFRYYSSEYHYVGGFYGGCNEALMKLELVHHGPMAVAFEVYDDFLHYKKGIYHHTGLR
T1 sequence (P53634 395-463): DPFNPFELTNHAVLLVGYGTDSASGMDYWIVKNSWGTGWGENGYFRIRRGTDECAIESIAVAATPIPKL
Protocol: A crude lysate of HL-60 cells (ATCC; Manassas, VA) was used as a source of human DPP1 enzyme in the assay. Lysate was prepared in 1% Triton X-100 in PBS at a concentration of 20,000 live cells per […] of lysis buffer and was centrifuged at 16,000 rcf for 10 minutes at 4° C., after which supernatant was collected and flash-frozen in liquid nitrogen. Test articles were applied to human DPP1 enzyme in Assay Buffer (25 mM MES pH 6.0, 50 mM NaCl, 5 mM DTT) in a total reaction volume of 125 μL. 25 μL of compound diluted to 50 nM in Assay Buffer plus 5% DMSO was first added to 50 μL of HL-60 lysate diluted to contain a DPP1 enzyme concentration of roughly 1 ng/μL and allowed to pre-incubate for 10 minutes at 37° C. after which 50 μL of 1000 μM H-Gly-Arg-AMC substrate (Bachem; St. Torrance, CA) was added, giving final compound concentration of 10 nM, a final substrate concentration of 400 μM and a final DMSO concentration of 1%. Substrate cleavage was measured for 90 minutes at 37° C., with fluorescence at Excitation/Emission 350/450 nm measured every 5 minutes. DPP1 concentration was interpolated based on its activity relative to a standard curve of activated human recombinant DPP1 enzyme. Percent inhibition at 10 nM was calculated for each test article based on remaining DPP1 activity compared to enzyme activity in wells that received only vehicle control.

human DPP1 enzyme [2] = target: T1, human DPP1 enzyme; experiment: Human DPP1 enzyme IC50 assay; type: biochemical; details: recombinant human DPP1, H-Gly-Arg-AMC substrate 400 μM
Protocol: Test articles were applied to activated human DPP1 enzyme in Assay Buffer (25 mM MES pH 6.0, 50 mM NaCl, 5 mM DTT) in a total reaction volume of 125 μL. 25 μL of compound in Assay Buffer plus 5% DMSO was first added to 50 μL of activated human DPP1 enzyme at a concentration of 1 ng/μL and allowed to pre-incubate for 10 minutes at 37° C. after which 50 μL of 1000 μM H-Gly-Arg-AMC substrate (Bachem; St. Torrance, CA) was added, giving final substrate concentration of 400 μM and a final DMSO concentration of 1%. Substrate cleavage was measured for 90 minutes at 37° C., with fluorescence at Excitation/Emission 350/450 nm measured every 5 minutes. DPP1 concentration was interpolated based on its activity relative to a standard curve of activated human recombinant DPP1 enzyme. IC50 values for each compound were calculated via the XLFit (IDBS Version 5.3.1.3) Add-On to Microsoft Excel using the four parameter fit equation y={A+[(B-A)]/[1+((C/x)^D)]}, which appears as equation number 205 (4 Parameter Logistic Model or Sigmoidal Dose-Response Model) in XLFit. Default constraints were used for each Parameter.

DPP1 in HL-60 cells, sequence (P53634 25-134): as the sequence (P53634 25-134) above
DPP1 in HL-60 cells, sequence (P53634 231-394): as the sequence (P53634 231-394) above
DPP1 in HL-60 cells, sequence (P53634 395-463): as the sequence (P53634 395-463) above

| Structure (SMILES) | inhibition at 0.005 µM (DPP1 in HL-60 cells) | inhibition at 0.01 µM (human DPP1 enzyme [1]) | IC50 (human DPP1 enzyme [2]) |
| --- | --- | --- | --- |
| CO[C@@H](CN(C)C)C(=O)N[C@H](C#N)Cc1ccc(-c2ccc3cnn(C4CCN(C)CC4)c3c2)cc1 [Compound 307] | ≤ 76.5% | 40 to 66.7% |  |
| CN(C)C[C@](C)(O)C(=O)N[C@H](C#N)Cc1ccc(-c2ccc3cnn(C4CCN(C)CC4)c3c2)cc1 [Compound 391] | ≤ 76.5% | ≥ 66.7% |  |
| CO[C@@H](CN(C)C)C(=O)N[C@H](C#N)Cc1cc2c(cc1F)-c1ccc(F)cc1CO2 [Compound 336] | ≤ 76.5% | ≤ 40% |  |
| CN(C)C[C@H](O)C(=O)N[C@H](C#N)Cc1ccc(-c2cnc3c(n2)CCCC3)cc1F [Compound 376] | ≤ 76.5% | ≤ 40% |  |
| CO[C@@H](CN(C)C)C(=O)N[C@H](C#N)Cc1ccc(-c2ccc3c(c2)C2(CCN(C)C2)OC3=O)cc1F (stereo partly shown) [Compound 319] | ≤ 76.5% | ≥ 66.7% |  |
| CN(C)C[C@](C)(O)C(=O)N[C@H](C#N)Cc1ccc(-c2cnc3c(n2)CCCC3)cc1 [Compound 414] | ≤ 76.5% | ≤ 40% |  |
| CN(C)C[C@H](O)C(=O)NC(C#N)Cc1cc2c(cc1F)-c1cc(C#N)ccc1CO2 (stereo partly shown) [Compound 340] |  | ≤ 40% |  |
| CN(C)C[C@](C)(O)C(=O)NC(C#N)Cc1cc2c(cc1F)-c1cc(C3COC3)c(F)cc1CO2 (stereo partly shown) [Compound 379] | ≤ 76.5% | ≤ 40% |  |
| CN(C)CCn1c(=O)oc2ccc(-c3ccc(C[C@@H](C#N)NC(=O)[C@@H](O)CN(C)C)c(F)c3)cc21 [Compound 357] | ≤ 76.5% | ≥ 66.7% |  |
| CO[C@@H](CN(C)C)C(=O)N[C@H](C#N)Cc1ccc(-c2ccc3oc(=O)n(CCN4CCOCC4)c3c2)cc1 [Compound 309] | ≤ 76.5% | ≤ 40% |  |
| CN(C)C[C@](C)(O)C(=O)NC(C#N)Cc1cc2c(cc1F)-c1cc(C#N)ccc1CO2 (stereo partly shown) [Compound 382] | ≤ 76.5% | ≤ 40% |  |
| CN(C)C[C@H](O)C(=O)N[C@H](C#N)Cc1ccc(-c2ccc(S(=O)(=O)N3CCC3)cc2)cc1F [Compound 377] | ≤ 76.5% | ≤ 40% |  |
| CO[C@@H](CN(C)C)C(=O)N[C@H](C#N)Cc1ccc(-c2cc3c(C)nc(C)cn3c2)cc1F [Compound 316] | ≤ 76.5% | ≤ 40% |  |
| CN(C)C[C@](C)(O)C(=O)N[C@H](C#N)Cc1ccc(-c2ccc3c(c2)C2(CCN(C4COC4)CC2)OC3)cc1F [Compound 405] | 76.5 to 93.9% | ≥ 66.7% |  |
| CN(C)C[C@H](O)C(=O)N[C@H](C#N)Cc1ccc(-c2ccc3c(c2)C2(CCN(C4COC4)CC2)OC3)cc1 [Compound 350] | ≤ 76.5% | ≤ 40% |  |
| CCN1C(=O)Cc2ccc(-c3ccc(C[C@@H](C#N)NC(=O)[C@@H](O)CN(C)C)cc3)cc21 [Compound 347] | ≤ 76.5% | ≤ 40% |  |
| COCCN(C)CCn1c(=O)oc2ccc(-c3ccc(C[C@@H](C#N)NC(=O)[C@@H](O)CN(C)C)c(F)c3)cc21 [Compound 368] | ≤ 76.5% | ≥ 66.7% |  |

| Structure (SMILES) | inhibition at 0.005 µM (DPP1 in HL-60 cells) | inhibition at 0.01 µM (human DPP1 enzyme [1]) | IC50 (human DPP1 enzyme [2]) |
| --- | --- | --- | --- |
| CN(C)C[C@H](O)C(=O)N[C@H](C#N)Cc1ccc(-c2ccc3c(c2)C2(CCCN(C)C2)C(=O)N3C)cc1F (stereo partly shown) [Compound 356] | 76.5 to 93.9% | 40 to 66.7% |  |
| CN(C)C[C@H](O)C(=O)N[C@H](C#N)Cc1ccc(-c2ccc3oc(=O)n(C)c3c2)cc1F [Compound 366] | 76.5 to 93.9% | 40 to 66.7% |  |
| CCN1C(=O)Cc2ccc(-c3ccc(C[C@@H](C#N)NC(=O)[C@@](C)(O)CN(C)C)cc3)cc21 [Compound 389] | 76.5 to 93.9% | 40 to 66.7% |  |
| CO[C@@H](CN(C)C)C(=O)N[C@H](C#N)Cc1ccc(-c2ccc3c(c2)C2(CC3)CCN(C)CC2)cc1F [Compound 313] | ≤ 76.5% | ≥ 66.7% |  |
| CO[C@@H](CN(C)C)C(=O)N[C@H](C#N)Cc1ccc(-c2ccc3c(c2)C2(CCN(C4COC4)CC2)OC3)cc1 [Compound 308] | ≤ 76.5% | ≤ 40% |  |
| CN(C)C[C@](C)(O)C(=O)N[C@H](C#N)Cc1ccc(-c2ccc3c(c2)C2(CN(C)C2)OC3=O)cc1 [Compound 388] | ≥ 93.9% | ≥ 66.7% |  |
| CN(C)C[C@H](O)C(=O)N[C@H](C#N)Cc1ccc(-c2ccc3oc(=O)n(CCN4CCOCC4)c3c2)cc1 [Compound 351] | ≤ 76.5% | ≤ 40% |  |
| CO[C@@H](CN(C)C)C(=O)N[C@H](C#N)Cc1ccc(-c2ccc3c(c2)C2(CN(C)C2)OC3=O)cc1F [Compound 317] | ≤ 76.5% | 40 to 66.7% |  |
| COCCN(C)CCn1c(=O)oc2ccc(-c3ccc(C[C@@H](C#N)NC(=O)[C@H](CN(C)C)OC)c(F)c3)cc21 [Compound 326] | ≤ 76.5% | ≥ 66.7% |  |
| CO[C@@H](CN(C)C)C(=O)N[C@H](C#N)Cc1ccc(-c2ccc3c(n2)CCCN3)cc1 [Compound 312] | ≤ 76.5% | ≤ 40% |  |
| CN(C)C[C@H](O)C(=O)N[C@H](C#N)Cc1ccc(-c2ccc3oc(=O)n(C)c3c2)cc1 [Compound 353] | 76.5 to 93.9% | 40 to 66.7% |  |
| CN(C)C[C@H](O)C(=O)N[C@H](C#N)Cc1cc2c(cc1F)-c1ccc(C#N)cc1CO2 [Compound 338] | ≤ 76.5% | ≤ 40% |  |
| CC(O)CNCC(=O)N[C@H](C#N)Cc1ccc(-c2ccc3oc(=O)n(C)c3c2)cc1 (stereo partly drawn) [Compound 174, N—((S)-1-cyano-2-(4-(3-methyl-2-oxo-2,3-dihydrobenzo[d]oxazol-5-yl)phenyl)ethyl)-2-((2-hydroxypropyl)amino)acetamide] |  |  | ≥ 15 nM |
| Cn1c(=O)oc2ccc(-c3ccc(C[C@@H](C#N)NC(=O)CC(N)Cc4cocn4)cc3)cc21 (stereo partly drawn) [Compound 230, 3-amino-N-[(1S)-1-cyano-2-[4-(3-methyl-2-oxo-1,3-benzoxazol-5-yl)phenyl]ethyl]-4-(1,3-oxazol-4-yl)butanamide] |  |  | ≥ 15 nM |
| Cn1c(=O)oc2ccc(-c3ccc(C[C@@H](C#N)NC(=O)C(C)(CN)Cc4c(F)cccc4Cl)cc3)cc21 (stereo partly drawn) [Compound 197, 3-amino-2-[(2-chloro-6-fluorophenyl)methyl]-N-[(1S)-1-cyano-2-[4-(3-methyl-2-oxo-1,3-benzoxazol-5-yl)phenyl]ethyl]-2-methylpropanamide] |  |  | ≥ 15 nM |
| Cn1c(=O)oc2ccc(-c3ccc(C[C@@H](C#N)NC(=O)C(CN)Cc4cccnc4)cc3)cc21 (stereo partly drawn) [Compound 191, 3-Amino-N-[(1S)-1-cyano-2-[4-(3-methyl-2-oxo-1,3-benzoxazol-5-yl)phenyl]ethyl]-2-(pyridin-3-ylmethyl) propanamide] |  |  | ≥ 15 nM |
